Data reported in the NIST ThermoML archive (doi:10.1016/j.jct.2018.03.013).
± gives the expanded uncertainty stated by the source.

Experiment: xn = mol fraction of the nth substance listed
Conditions: 100 kPa, Liquid; for speed of sound: Frequency=3 MHz, Linear variable-path acoustic interferometer; for mass density: Pycnometric method

C=C(C)C(=O)OCC [ethyl 2-methylpropenoate] + CC#N
Conditions	mass density [kg/m3]	speed of sound [m/s]
293.15 K, x2 = 0	912.3 ± 1	1196.8 ± 1.6
293.15 K, x2 = 0.0556	909.47 ± 1	1200.9 ± 1.6
293.15 K, x2 = 0.1112	906.38 ± 1	1205 ± 1.6
293.15 K, x2 = 0.1631	903.24 ± 1	1208.8 ± 1.6
293.15 K, x2 = 0.2147	899.86 ± 1	1212.6 ± 1.6
293.15 K, x2 = 0.2795	895.21 ± 1	1217.4 ± 1.6
293.15 K, x2 = 0.3446	890.04 ± 1	1222.2 ± 1.6
293.15 K, x2 = 0.4132	883.98 ± 1	1227.4 ± 1.6
293.15 K, x2 = 0.4819	877.18 ± 1	1232.8 ± 1.6
293.15 K, x2 = 0.5597	868.44 ± 1	1239.5 ± 1.6
293.15 K, x2 = 0.6375	858.38 ± 1	1246.9 ± 1.6
293.15 K, x2 = 0.7251	845.11 ± 1	1256.4 ± 1.6
293.15 K, x2 = 0.8113	829.5 ± 1	1267.7 ± 1.6
293.15 K, x2 = 0.9014	809.62 ± 1	1282.6 ± 1.6
293.15 K, x2 = 0.9542	795.78 ± 1	1293.4 ± 1.6
298.15 K, x2 = 0	907.18 ± 1	1176.9 ± 1.6
298.15 K, x2 = 0.0556	904.36 ± 1	1181 ± 1.6
298.15 K, x2 = 0.1112	901.28 ± 1	1185.1 ± 1.6
298.15 K, x2 = 0.1631	898.14 ± 1	1188.8 ± 1.6
298.15 K, x2 = 0.2147	894.76 ± 1	1192.5 ± 1.6
298.15 K, x2 = 0.2795	890.11 ± 1	1197.2 ± 1.6
298.15 K, x2 = 0.3446	884.94 ± 1	1201.9 ± 1.6
298.15 K, x2 = 0.4132	878.87 ± 1	1207 ± 1.6
298.15 K, x2 = 0.4819	872.05 ± 1	1212.3 ± 1.6
298.15 K, x2 = 0.5597	863.29 ± 1	1218.8 ± 1.6
298.15 K, x2 = 0.6375	853.22 ± 1	1226 ± 1.6
298.15 K, x2 = 0.7251	839.92 ± 1	1235.4 ± 1.6
298.15 K, x2 = 0.8113	824.27 ± 1	1246.5 ± 1.6
298.15 K, x2 = 0.9014	804.36 ± 1	1261.1 ± 1.6
298.15 K, x2 = 0.9542	790.5 ± 1	1271.8 ± 1.6
303.15 K, x2 = 0	902.06 ± 1	1157.6 ± 1.6
303.15 K, x2 = 0.0556	899.25 ± 1	1161.8 ± 1.6
303.15 K, x2 = 0.1112	896.18 ± 1	1165.9 ± 1.6
303.15 K, x2 = 0.1631	893.05 ± 1	1169.6 ± 1.6
303.15 K, x2 = 0.2147	889.66 ± 1	1173.3 ± 1.6
303.15 K, x2 = 0.2795	885.01 ± 1	1177.9 ± 1.6
303.15 K, x2 = 0.3446	879.82 ± 1	1182.6 ± 1.6
303.15 K, x2 = 0.4132	873.74 ± 1	1187.7 ± 1.6
303.15 K, x2 = 0.4819	866.92 ± 1	1193 ± 1.6
303.15 K, x2 = 0.5597	858.14 ± 1	1199.5 ± 1.6
303.15 K, x2 = 0.6375	848.05 ± 1	1206.7 ± 1.6
303.15 K, x2 = 0.7251	834.72 ± 1	1216.2 ± 1.6
303.15 K, x2 = 0.8113	819.05 ± 1	1227.4 ± 1.6
303.15 K, x2 = 0.9014	799.1 ± 1	1242.2 ± 1.6
303.15 K, x2 = 0.9542	785.22 ± 1	1252.9 ± 1.6
308.15 K, x2 = 0	896.94 ± 1	1139.4 ± 1.6
308.15 K, x2 = 0.0556	894.14 ± 1	1143.6 ± 1.6
308.15 K, x2 = 0.1112	891.07 ± 1	1147.7 ± 1.6
308.15 K, x2 = 0.1631	887.95 ± 1	1151.4 ± 1.6
308.15 K, x2 = 0.2147	884.57 ± 1	1155 ± 1.6
308.15 K, x2 = 0.2795	879.91 ± 1	1159.6 ± 1.6
308.15 K, x2 = 0.3446	874.71 ± 1	1164.3 ± 1.6
308.15 K, x2 = 0.4132	868.61 ± 1	1169.3 ± 1.6
308.15 K, x2 = 0.4819	861.78 ± 1	1174.6 ± 1.6
308.15 K, x2 = 0.5597	852.99 ± 1	1181 ± 1.6
308.15 K, x2 = 0.6375	842.87 ± 1	1188.1 ± 1.6
308.15 K, x2 = 0.7251	829.52 ± 1	1197.5 ± 1.6
308.15 K, x2 = 0.8113	813.82 ± 1	1208.6 ± 1.6
308.15 K, x2 = 0.9014	793.83 ± 1	1223.4 ± 1.6
308.15 K, x2 = 0.9542	779.93 ± 1	1234.1 ± 1.6
313.15 K, x2 = 0	891.83 ± 1	1121.5 ± 1.6
313.15 K, x2 = 0.0556	889.04 ± 1	1125.6 ± 1.6
313.15 K, x2 = 0.1112	885.98 ± 1	1129.8 ± 1.6
313.15 K, x2 = 0.1631	882.85 ± 1	1133.5 ± 1.6
313.15 K, x2 = 0.2147	879.47 ± 1	1137.1 ± 1.6
313.15 K, x2 = 0.2795	874.81 ± 1	1141.7 ± 1.6
313.15 K, x2 = 0.3446	869.6 ± 1	1146.3 ± 1.6
313.15 K, x2 = 0.4132	863.49 ± 1	1151.3 ± 1.6
313.15 K, x2 = 0.4819	856.64 ± 1	1156.5 ± 1.6
313.15 K, x2 = 0.5597	847.83 ± 1	1162.9 ± 1.6
313.15 K, x2 = 0.6375	837.7 ± 1	1169.9 ± 1.6
313.15 K, x2 = 0.7251	824.32 ± 1	1179.2 ± 1.6
313.15 K, x2 = 0.8113	808.59 ± 1	1190.3 ± 1.6
313.15 K, x2 = 0.9014	788.57 ± 1	1205 ± 1.6
313.15 K, x2 = 0.9542	774.64 ± 1	1215.7 ± 1.6
318.15 K, x2 = 0	886.71 ± 1	1104.6 ± 1.6
318.15 K, x2 = 0.0556	883.94 ± 1	1108.7 ± 1.6
318.15 K, x2 = 0.1112	880.88 ± 1	1112.8 ± 1.6
318.15 K, x2 = 0.1631	877.75 ± 1	1116.5 ± 1.6
318.15 K, x2 = 0.2147	874.37 ± 1	1120.1 ± 1.6
318.15 K, x2 = 0.2795	869.7 ± 1	1124.6 ± 1.6
318.15 K, x2 = 0.3446	864.49 ± 1	1129.2 ± 1.6
318.15 K, x2 = 0.4132	858.37 ± 1	1134.1 ± 1.6
318.15 K, x2 = 0.4819	851.5 ± 1	1139.2 ± 1.6
318.15 K, x2 = 0.5597	842.68 ± 1	1145.4 ± 1.6
318.15 K, x2 = 0.6375	832.52 ± 1	1152.3 ± 1.6
318.15 K, x2 = 0.7251	819.12 ± 1	1161.4 ± 1.6
318.15 K, x2 = 0.8113	803.35 ± 1	1172.3 ± 1.6
318.15 K, x2 = 0.9014	783.3 ± 1	1186.7 ± 1.6
318.15 K, x2 = 0.9542	769.35 ± 1	1197.3 ± 1.6
